Reference: US12715849B2, “Herbicidal tetrazole compounds” (SYNGENTA CROP PROTECTION AG, priority 2020, dated 2026)

Columns and labels:
Type in all cases: in vivo
Setaria faberi (SETFA) = experiment: Glasshouse herbicidal test, pre- and post-emergence (Table B1); settings: 130 g/h, evaluated after 13 days; for percentage damage caused to the plant, POST Application SETFA: post-emergence; for percentage damage caused to the plant, PRE Application SETFA: pre-emergence
Description: (§1) Seeds of a variety of test species are sown in standard soil in pots (Lolium perenne (LOLPE), Amaranthus retoflexus (AMARE), Amaranthus palmeri (AMAPA), Ablution theophrasti (ABUTH), Setaria faberi (SETFA), Echinochloa crus-galli (ECHCG), Ipomoea hederacea (IPOHE)). After cultivation for one day (pre-emergence) or after 8 days cultivation (post-emergence) under controlled conditions in a glasshouse (at 24/16° C., day/night; 14 hours light; 65% humidity), the plants are sprayed with an aqueous spray solution derived from the formulation of the technical active ingredient in acetone/water (50:50) solution containing 0.5% Tween 20 (polyoxyethelyene sorbitan monolaurate, CAS RN 9005-64-5). Compounds are applied at 130 g/h unless otherwise indicated. The test plants are then grown in a glasshouse under controlled conditions in a glasshouse (at 24/16° C., day/night; 14 hours light; 65% humidity) and watered twice daily. After 13 days for pre and post-emergence, the test is evaluated for the percentage damage caused to the plant. The biological activities are shown in the following table on a five-point scale (5=80-100%; 4=60-79%; 3=40-59%; 2=20-39%; 1=0-19%).

[1] = tested on: Ipomoea hederacea (IPOHE); experiment: as above; settings: 130 g/h, evaluated after 13 days; for percentage damage caused to the plant, POST Application IPOHE: post-emergence; for percentage damage caused to the plant, PRE Application IPOHE: pre-emergence
Description: as §1

[2] = tested on: Amaranthus retoflexus (AMARE); experiment: as above; settings: 130 g/h, evaluated after 13 days; for percentage damage caused to the plant, POST Application AMARE: post-emergence; for percentage damage caused to the plant, PRE Application AMARE: pre-emergence
Description: as §1

[3] = tested on: Echinochloa crus-galli (ECHCG); experiment: as above; settings: 130 g/h, evaluated after 13 days; for percentage damage caused to the plant, POST Application ECHCG: post-emergence; for percentage damage caused to the plant, PRE Application ECHCG: pre-emergence
Description: as §1

[4] = tested on: Amaranthus palmeri (AMAPA); experiment: as above; settings: 130 g/h, evaluated after 13 days; for percentage damage caused to the plant, PRE Application AMAPA: pre-emergence
Description: as §1

[5] = tested on: AMARE (Amaranthus retoflexus); experiment: Comparative test, pre-emergence (Table B2); settings: after 14 days
SETFA (Setaria faberi) = experiment: Comparative test, pre-emergence (Table B2); settings: after 14 days
[6] = tested on: IPOHE (Ipomoea hederacea); experiment: Comparative test, pre-emergence (Table B2); settings: after 14 days
[7] = tested on: ECHCG (Echinochloa crus-galli); experiment: Comparative test, pre-emergence (Table B2); settings: after 14 days

Compound	percentage damage caused to the plant, POST Application SETFA (Setaria faberi (SETFA))	percentage damage caused to the plant, PRE Application SETFA (Setaria faberi (SETFA))	percentage damage caused to the plant, POST Application IPOHE [1]	percentage damage caused to the plant, PRE Application IPOHE [1]	percentage damage caused to the plant, POST Application AMARE [2]	percentage damage caused to the plant, PRE Application AMARE [2]	percentage damage caused to the plant, POST Application ECHCG [3]	percentage damage caused to the plant, PRE Application ECHCG [3]	percentage damage caused to the plant, PRE Application AMAPA [4]	damage to plant (100 = total damage; 0 = no damage), PRE Application AMARE ([5]; rate 31 g/ha)	damage to plant (100 = total damage; 0 = no damage), PRE Application AMARE ([5]; rate 130 g/ha)	damage to plant (100 = total damage; 0 = no damage), PRE Application SETFA (SETFA (Setaria faberi); rate 31 g/ha)	damage to plant (100 = total damage; 0 = no damage), PRE Application SETFA (SETFA (Setaria faberi); rate 130 g/ha)	damage to plant (100 = total damage; 0 = no damage), PRE Application IPOHE ([6]; rate 31 g/ha)	damage to plant (100 = total damage; 0 = no damage), PRE Application IPOHE ([6]; rate 130 g/ha)	damage to plant (100 = total damage; 0 = no damage), PRE Application ECHCG ([7]; rate 31 g/ha)	damage to plant (100 = total damage; 0 = no damage), PRE Application ECHCG ([7]; rate 130 g/ha)	percentage damage caused to the plant, POST Application AMAPA ([4]; post-emergence)
Cc1c(C(=O)Nc2nnnn2C)ccc(OC(F)(F)F)c1NS(C)(=O)=O [Compound 1.075]	5 (5=80-100%)	4 (4=60-79%)	5 (5=80-100%)	3 (3=40-59%)	5 (5=80-100%)	5 (5=80-100%)	5 (5=80-100%)	5 (5=80-100%)	5 (5=80-100%)	80	100	30	60	40	50	60	90	
CCS(=O)(=O)Nc1c(OC(F)(F)F)ccc(C(=O)Nc2nnnn2C)c1C [Compound 1.081]	5 (5=80-100%)	5 (5=80-100%)	5 (5=80-100%)	3 (3=40-59%)	5 (5=80-100%)	5 (5=80-100%)	5 (5=80-100%)	5 (5=80-100%)	5 (5=80-100%)	90	100	20	80	40	50	60	90	5 (5=80-100%)
